As a reminder, the EC50 is the concentration needed to bring the measured effect to its halfway point. A high value points to weaker potency. As a reminder, the IC50 is the concentration needed to halve the response being measured.

Experiment [1] relates to M-07e cells which endogenously express human c-KIT. The experiment in a line: M-07e cellular assay: SCF-mediated cell proliferation (CellTiter Glo). As to conditions: 72 h, SCF-mediated proliferation of M-07e cells. The class given is cell-based. The procedure:
M-07e cells (Creative Bioarray, CSC-C0249) which endogenously express human c-KIT were used to evaluate the effect of compounds on stem cell factor (SCF)-mediated cell proliferation. M-07e cells were cultured in growth media (RPMI+10% FBS+1% penicillin/streptomycin+10 ng/mL GM-CSF) at 5E5-1.5E6 cells/mL, replenishing media every 3-4 days. 1.5E4 cells were seeded per well in 384 well tissue culture treated plates in […] assay media (RPMI+10% FBS+1% penicillin/streptomycin) without growth factor stimulation and incubated at 37° C. in a CO2 humidity-controlled incubator. Twenty-four hours later, three-fold serially diluted test compounds in media containing SCF (at the previously determined EC90) were added to the plated M-07e cells and incubated for an additional 72 hours. Cell viability was determined by adding 25 μL CellTiter Glo (Promega) to the cells and the luminescence was measured using a Perkin Elmer Envision plate reader. The EC50 was determined using GraphPad Prism. Percent cell growth was determined after normalizing the curve to the mean RLU high control (no compound control wells) at 100% and the mean RLU low control (no SCF control wells) at 0%.
(In general: In ATP-based viability assays light output follows the ATP content of the culture.)

For experiment [2], the target named is T1, Recombinant human c-KIT kinase (Homo sapiens, UniProt P10721).
T1 construct: purchased Promega V4498
The experiment in a line: c-KIT kinase chemiluminescence assay (ADP-Glo). It counts as biochemical. The note with it: ATP 50 μM. The method, then: The c-KIT Kinase Enzyme System (V4498) and ADP-Glo™ Kinase Assay kit (V6930) were purchased from Promega (Madison, WI). DMSO (D2650) was purchased from Sigma-Aldrich (Burlington, MA).
c-KIT Kinase Chemiluminescence Assay:
Kinase Reaction: The kinase assay was based on the recommended protocol by c-KIT Kinase Enzyme System from Promega. Recombinant human c-KIT kinase in 3 μL of assay buffer (40 mM Tris pH 7.5, 20 mM MgCl2, 0.1 mg/mL BSA and 50 μM DTT) was added to the test or high control wells and 3 μL of assay buffer was added to the low control wells. The microplate was centrifuged at 800 rotations per minute (rpm) for 60 s and incubated at room temperature (RT) for 30 min. Next, 2 μL of buffered ATP and polyEY substrate solution was added to all wells. The microplate was centrifuged at 800 rpm for 60 s and incubated at RT for 2 h.
ADP detection with ADP-Glo™ Kinase Assay: After the kinase reaction incubation, 5 μL of ADP-Glo™ reagent was added to all wells. The microplate was centrifuged at 800 rpm for 60 s and incubated at RT for 40 min. Ten microliter (10 μL) of Kinase Detection Reagent (Luciferin-Luciferase system) was then added to all wells. The microplate was centrifuged at 800 rpm for 60 s and incubated at RT for 60 min. Kinase activity was measured as an increase in luminescence at RT in an Envision plate reader equipped with 560 nm filters and operating in endpoint mode.
Data Analysis: Endpoint chemiluminescence from high and low control wells were used to calculate normalized c-KIT activity at various concentrations of test compounds. The normalized activities were fitted to inhibitor-versus-normalized response fit in GraphPad Prism 7 to determine half-maximal inhibitory concentration (IC50) and hill coefficient values (H).
Where I is the inhibitor concentration and H is the Hill coefficient.

T1 sequence (P10721 544-976 limits assumed): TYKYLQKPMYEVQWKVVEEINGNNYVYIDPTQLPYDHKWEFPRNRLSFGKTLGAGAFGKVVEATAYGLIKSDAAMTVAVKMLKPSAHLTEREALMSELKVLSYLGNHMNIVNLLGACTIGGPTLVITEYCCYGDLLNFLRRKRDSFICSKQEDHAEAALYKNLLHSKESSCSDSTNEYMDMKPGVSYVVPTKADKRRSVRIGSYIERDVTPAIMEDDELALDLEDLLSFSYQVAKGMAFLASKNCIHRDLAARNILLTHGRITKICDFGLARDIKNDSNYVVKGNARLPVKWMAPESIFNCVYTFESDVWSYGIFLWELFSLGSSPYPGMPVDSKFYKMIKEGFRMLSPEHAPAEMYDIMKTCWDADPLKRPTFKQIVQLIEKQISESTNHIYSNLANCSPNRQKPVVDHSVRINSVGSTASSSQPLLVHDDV

As for `Cc1ncc(-c2noc(C3CC(OC(F)F)C3)n2)cc1NC(=O)c1cnn2ccc(N3CC4(C3)CC(O)(C(F)(F)F)C4)cc12` (stereo not shown) [Example 281-40], the EC50 in experiment [1] was below 100 nM. Also, in experiment [2], the IC50 lay in the range of 100 to 1000 nM.

Consider `COCCn1nnc(-c2cnc(C)c(NC(=O)c3cnn4ccc(N5CC6(C5)CC(O)(C(F)F)C6)cc34)c2)n1` [Example 386], for which, in experiment [1], the EC50 fell in the range of 100 to 1000 nM. In addition, the IC50 in experiment [2] is 100 to 1000 nM.

Regarding `Cc1ncc(-c2noc([C@H]3C[C@@H]3F)n2)cc1NC(=O)c1cnc(-c2ccc3nn(CC(C)(C)O)c(C)c3c2)o1` [Example 23a], the EC50 in experiment [1] lay within 100 to 1000 nM. Also, in experiment [2], the IC50 was in the range of 100 to 1000 nM.

`Cc1ccc(-c2noc(C3C[C@@H]3C(F)F)n2)cc1NC(=O)c1ccc(NC(=O)OC(C)(C)C)nc1` (stereo partly shown) [Example 398] had an EC50 in experiment [1] above 1000 nM. For the same compound, the IC50 in experiment [2] is above 1000 nM.

Regarding `Cc1ncc(-c2nnn(CCC(F)(F)F)n2)cc1NC(=O)c1cnn2ccc(N3CC4(C3)CC(O)(C(F)F)C4)cc12` [Example 384], in experiment [1], the EC50 was below 100 nM. In experiment [2], the IC50 fell in the range of 100 to 1000 nM.

In the case of `COCCn1nc(C)c(-c2ccc3c(C(=O)Nc4cc(-c5noc([C@H]6C[C@@H]6F)n5)ccc4C)cnn3c2)c1C` [Example 147], the EC50 in experiment [1] is below 100 nM. Also, the IC50 in experiment [2] is below 100 nM.

`Cc1ccc(-c2noc(C3C[C@@H]3C(F)F)n2)cc1NC(=O)c1ccc(N)nc1` (stereo partly shown) [Example 400]: the EC50 in experiment [1] was above 1000 nM. In addition, the IC50 in experiment [2] was above 1000 nM.

Take `Cc1ncc(-c2nnn(C[C@@H](O)C(F)F)n2)cc1NC(=O)c1cnn2ccc(N3CC4(C3)CC(O)(C(F)F)C4)cc12` [Example 379]: the EC50 in experiment [1] is 100 to 1000 nM. Further, the IC50 in experiment [2] was in the range of 100 to 1000 nM.

`Cc1ncc(-c2nnn(C3CC3)n2)cc1NC(=O)c1cnn2ccc(N3CC4(C3)CC(O)(C(F)F)C4)cc12` [Example 403]: the EC50 in experiment [1] is below 100 nM. In addition, the IC50 in experiment [2] is 100 to 1000 nM.

In turn, `Cc1ncc(-c2nnn(C[C@H](O)C(F)(F)F)n2)cc1NC(=O)c1cnn2ccc(N3CC4(C3)CC(O)(C(F)F)C4)cc12` [Example 380] came in with an EC50 in experiment [1] of 100 to 1000 nM. Also, in experiment [2], the IC50 was in the range of 100 to 1000 nM.

`Cc1ccc(-c2noc(C3C[C@@H]3F)n2)cc1NC(=O)c1cnc(-c2cnc(N3CC(O)(C(F)(F)F)C3)nc2)o1` (stereo partly shown) [Example 402] came in with an EC50 in experiment [1] of 100 to 1000 nM. Also, the IC50 in experiment [2] is above 1000 nM.

In experiment [1], `Cc1ccc(-c2noc([C@H]3C[C@@H]3F)n2)cc1NC(=O)c1ccc(N)nc1` [Example 397] registered an EC50 above 1000 nM. For the same compound, in experiment [2], the IC50 was above 1000 nM.

`O=C(Nc1cc(-c2ncc(C3CC3)cn2)ccc1C(F)F)c1cnn2ccc(N3CC4(C3)CC(O)(C(F)F)C4)cc12` [Example 393] came in with an EC50 in experiment [1] below 100 nM. The 50% inhibitory concentration (IC50) in experiment [2] lay in the range of 100 to 1000 nM.

`Cc1ncc(-c2noc([C@H]3C[C@@H]3F)n2)cc1NC(=O)c1cnc(-c2ccc3c(c2)c(C)nn3CC(C)(C)O)o1` [Example 22a] registered an EC50 in experiment [1] below 100 nM. The IC50 in experiment [2] was 100 to 1000 nM.

These data come from US20250304600A1, “PHARMACEUTICAL COMPOUNDS AND COMPOSITIONS AS c-KIT KINASE INHIBITORS” (Enanta Pharmaceuticals, Inc., priority 2023, published 2025).
